# From patent US20230130102A1, “Na/K-ATPase LIGANDS AND USE THEREOF FOR TREATMENT OF CANCER” (Marshall University Research Corporation, priority 2019, published 2023)
# Entries after “also recorded” stand apart in the source; their conditions may differ.
# Key:
# [1] = target: T1, α1 NKA (Homo sapiens, UniProt P05023); test: α1 NKA endocytosis (biotinylation assay) in subclone 4; assay type: cell-based; settings: xenograft derived clone 4
# T1 construct: endogenous in cells; host or cells: subclone 4 (from DU145 α1 NKA knockdown xenograft)
# Description: α1 NKA endocytosis assay. Endocytosis assay was performed as described before.
# [2] = test system: DU145 or α1 knockdown cells (KD) xenograft; test: tumor xenograft of DU145 or α1 KD cells in NOD/SCID mice; assay type: in vivo, mouse
# Description: Mice studies. Animal protocols were approved by an Institutional Animal Care and Use Committee (IACUC) according to NIH guidelines. Tumor xenografts were established by subcutaneous injection of 5×10^6 cancer cells into the left and right flanks of 10-week-old male NOD/SCID mice (Charles River). Tumor length (L) and width (W) were measured with calipers weekly and tumor volume was estimated as V=(L×W^2)/2. After the tumor volumes reached approximately 100 mm^3, mice were sacrificed and tumors were harvested. Half of the tumors were used for protein extraction and the other half were digested with collagenase I solution (SIGMA) to isolate cancer cells.
# For MB5 treatment, after tumor volume reached approximately 100 mm^3, mice were injected peritoneally with DMSO or MB5 at 20 mg/kg or 10 mg/kg daily and further monitored for tumor growth weekly. At the end of treatment period (about 2-3 weeks), tumors were harvested and tumor lysates were analyzed for protein expression by Western blot.
# The therapeutic potential of MB5 in a tumor xenograft model was first tested by injecting DU145 or corresponding α1 knockdown cells (KD) into the right or left flank of 10-week-old NOD/SCID mice. The tumor growth was monitored twice weekly. Once the tumors reached a volume of approximately 100 mm^3, the animals received daily injections of MB5 at 20 mg/kg intraperitoneally for 3.5 weeks. […] Next, it was determined whether MB5 could decrease tumor growth of highly aggressive subclones derived from DU145. […] FIG. 26E summarizes the effect of MB5 treatment on all types of xenografted tumor growth from DU145 and derivative cell lines.
# [3] = test system: A425P and Y260A cells; test: basal ERK activation in Src binding mutant Y260A and A425P cells; assay type: cell-based, pig
# Description: Characterization of MB5 activity on the NKA receptor function known as the NKA/Src binary receptor mechanism was conducted in a pig kidney epithelial cells (LLC-PK1)-based platform using immunostaining and Western blot analyses. […] The change of NKA conformation that occurs upon binding of agonists such as ouabain, results in the release and activation of the Src kinase domain from the “Naktide” site of NKA CD3, while the other interaction (constitutive) persists between NKA CD2 and the SH2 domain of Src. […] In LLC-PK1-derived cells with low NKA receptor constitutive activity due to substantial reduction (over 80%) of α1 NKA expression by siRNA (PY17 cells), increased basal Src and ERK activity is observed due to the abnormally high amount of Src kinase that remains in an active conformation. Increased basal Src and ERK activity is also observed in LLC-PK1-derived cells with reduced NKA receptor constitutive activity that result from mutations in either domain of interaction with Src without alteration of the ion pumping activity (e.g. A425P on the Naktide sequence, or Y260A on the CD2 domain).
# [4] = test system: KD cells from C4-2; test: Western blot of EMT phenotype in α1 KD cells derived from C4-2; assay type: cell-based, human; settings: KD cells from C4-2, 1 μM
# Description: Cell lines. DU145, PC3 and C4-2 cell lines were purchased from and maintained according to ATCC recommendations. Parental DU145 and derived cell lines were cultured in high glucose […] supplemented with 10% Fetal Bovine Serum and 1% Penicillin/Streptomycin in 37° c. humidified incubator with 5% C02. LLC-PK1, PY17, Y260A, A425P and YFP-α1TCN cells were cultured in the same media and under similar conditions. PC3 and C4-2 cell lines were cultured in RPMI medium with similar conditions as described above. α1 knockdown KD cells were generated from DU145 and C4-2 using a α1 NKA-specific siRNA, as previously described. Knockdown was verified by both qPCR and Western blot analyses. Rat α1 NKA rescued cell lines were generated by transfecting KD cells with a pRC/CMV-α1 AACm1 vector followed by selection with ouabain (2 μM), as previously described. Cells were passaged for three generations without ouabain before conducting experiments.
# Western blot, Immunoprecipitation and Immunostaining. Cells were grown to 100% confluency and Western blot were performed as described before. Images were quantified with ImageJ software from NIH. […]
# [5] = test system: DU145 derived subclones; test: Western blot / immunostaining of EMT markers, Src/FAK activation and proliferation markers in DU145 derived subclones; assay type: cell-based, human; settings: subclone 2 cells, 1 μM, 24 hours
# [6] = pharmacokinetic (PK) and toxicity study in a mouse model; assay type: in vivo
# [7] = test system: P450 enzymes; test: metabolism by P450 enzymes; assay type: in vitro ADME
# [8] = test system: subclone 5 spheroids (DU145 derived); test: 3D culture spheroid growth, subclone 5; assay type: cell-based, human; settings: subclone 5 spheroids in 3D culture
# Description: 3D culture-spheroid invasion assay. Cells were trypsinized gently (0.05% Trypsin-EDTA) and diluted at 1000 cells in 20 μl of full serum media for DU145 and C4-2 derived sub-clones or 500 cells in 20 ul for PC3 cells and allowed to form spheroids using hanging drop technique for 3 days, as described previously. Generated spheroids were then embedded into 3D matrix (not yet solidified at the time of experiment), as described in the previous section, on top of a 1% solidified agarose coating in 48 well plates. Spheroids were monitored from day 1 to different time points and images were taken using a phase contrast microscope fitted with camera, at same settings. Spheroid growth or invasion area was quantified using ImageJ software from NIH. The following formulas were used for quantitation of spheroids:
# Spheroid growth=(Spheroid area at Day 3 or 7-Spheroid area at 16 hours)/Spheroid area at 16 hours
# For drug treatment, compound was diluted into media, from stock solution. For MMP secretion, conditioned media for 3 days were collected from top of matrix and assessed for MMP secretion by Western blot using Matrix Remodeling Antibody Sampler kit from Cell Signaling Technology (Cat #73959).
compound,measurement,setting,value
O=c1c2cccc(O)c2oc2c(O)c(O)ccc12 [MB5],α1 NKA endocytosis,[1],abolished α1 NKA endocytosis; also recorded: significantly reduced α1 NKA endocytosis
same,reduction of tumor growth,"[2]; 20 mg/kg daily intraperitoneally for 3.5 weeks, DU145 and KD groups",about 70%
same,bodyweight,"[2]; 20 mg/kg, NOD/SCID mice",without significantly affecting bodyweight
same,tumor growth,"[2]; 20 mg/kg/day, DU145 or KD cells",reduces tumor growth
same,tumor growth,[2]; all tested cell lines xenografted into NOD/SCID mice,significantly reduced tumor growth from all tested cell lines
same,basal ERK phosphorylation,[3],did not reduce high levels of ERK phosphorylation
same,"expression of SNAIL, SLUG and Myc",[4],"inhibiting the expression of SNAIL, SLUG and Myc"
same,occludin and E-cadherin expression,[4],upregulate occludin and E-cadherin expression
same,E-cadherin and occludin expression (immunostaining),[5],Increase in E-cadherin and occludin expression
same,systemic exposure level versus dose,[6]; 50-200 mg/kg after oral administration,proportional to dose level
same,toxic effects,[6]; after more than 1 month of administration,No detectable toxic effects
same,removal by secondary metabolism,[6]; most likely by UGT enzymes,quickly removed by secondary metabolism
same,toxicity,"[6]; mouse, in vivo",quite non-toxic
same,metabolism by P450 enzymes,[7],not metabolized significantly
same,spheroid size,[8],significantly reduced the size of subclone 5 spheroids
